Results taken from patent US20220242812A1, “SWELL1-LRRC8 COMPLEX MODULATORS” (Washington University, priority 2019, published 2022).
Entries after “also recorded” stand apart in the source; their conditions may differ. Read-outs that look alike come from different tables or passages of the source.

Legend:
[1] = In vivo pharmacokinetics in mice; conditions: for bioavailability: male, C57/BL6, mouse, plasma, po, 5 mg/kg, AUCp.o./AUCi.v.; for AUCinf / Cmax / T-half: single dose 5 mg/kg
Experimental: Male C57/BL6 mice were used in the study and assessed for a single dose (5 mg/kg) administration. The compounds were prepared in Cremaphor for i.p. and p.o dose routes and in 5% ethanol, 10% Tween-20 and water mix for i.v. route at a final concentration of 1 mg/ml. […] The blood samples were collected in tubes with K2 EDTA anticoagulant and further processed to collect plasma by centrifugation at 3500 rpm at 5° C. for 10 min Samples were further processed in LC/MS to determine the concentration of the compounds. Non-compartmental analysis was performed to obtain the PK parameters using the PKPlus software package (Simulation Plus). The area under the plasma concentration-time curve (AUCint) is calculated from time 0 to infinity where the Cmax is the maximal concentration achieved in plasma and t112 is the terminal elimination half-life. Oral bioavailability was calculated as AUCorailAUC1v*100.

CYP 3A4 = target: T1, CYP 3A4 (Homo sapiens, UniProt P08684); test: Cytochrome P450 inhibition assay, CYP 3A4; format: in vitro ADME; conditions: human liver microsomes
T1 construct: Human liver microsomes were diluted in Potassium phosphate buffer; tissue Charles River Laboratory (performed the study); host or cells: human liver microsomes

[2] = target: T2, SWELL1-LRRC8 channel (ICl,SWELL) in HEK-293 cells (Homo sapiens, UniProt Q8IWT6); test: ICl,SWELL inhibition after hypotonic activation, patch-clamp in HEK-293 cells; format: cell-based
T2 construct: endogenous in cells; host or cells: HEK-293 (ATCC CRL-1573)
Experimental: Mean presented±SEM. Two-tailed unpaired t-test was used. *, **, and *** represents p<0.05, p<0.01 and p<0.001, respectively.
Patch-clamp recordings of β-cells and mature adipocytes were performed as described previously (Kang et al., 2018; Zhang et al., 2017). 3T3-F442A WT and KO preadipocytes were prepared as described in the Cell culture section above. For SWELL1 overexpression recordings, preadipocytes were first transduced with Ad5-CAG-LoxP-stop-LoxP-3×Flag-SWELL1 (MOI 12) in 2% FBS culture medium for two days and then overexpression induced by adding Ad5-CMV-Cre-wt-lRES-eGFP (MOI 10-12) in 2% FBS culture medium for two more days and changed to 10% FBS containing culture media and were selected based on GFP expression (˜2-3 days). For cell recordings, islets were transduced with Ad-RIP2-GFP and then dispersed after 48-72 hours for patch-clamp experiments. GFP+ cells marked β-cells selected for patch-clamp recordings. […] Recordings were measured using […] amplifier paired to a Digidata 1550 digitizer using pClamp 10.4 software. The extracellular buffer composition for hypotonic stimulation contains 90 mM NaCl, 2 mM CsCl, 1 mM MgCl, 1 mM CaCb, 10 mM HEPES, 10 mM Mannitol, pH 7.4 with NaOH (210 mOsm/kg). The extracellular isotonic buffer composition is same as above except for Mannitol concentration of 110 mM (300 mOsm/kg). The composition of intracellular buffer is 120 mM L-aspartic acid, 20 mM CsCl, 1 mM MgCl, 5 mM EGTA, 10 mM HEPES, 5 mM MgATP, 120 mM CsOH, 0.1 mM GTP, pH 7.2 with CsOH. All recordings were carried out at room temperature (RT) with HEK-293 cells, β-cells and 3T3-F442A cells performed in whole-cell configuration and human adipocytes in perforated-patch configuration, as previously described (Kang et al., 2018; Zhang et al., 2017).

CYP 2C9 = target: T3, CYP 2C9 (Homo sapiens, UniProt P11712); test: Cytochrome P450 inhibition assay, CYP 2C9; format: in vitro ADME; conditions: human liver microsomes
T3 construct: Human liver microsomes were diluted in Potassium phosphate buffer; tissue Charles River Laboratory (performed the study); host or cells: human liver microsomes

Caco-2 cell monolayer = test: Caco-2 permeability assay; format: in vitro ADME
Experimental: (§1) In vitro ADMET studies were performed at Charles River Laboratory as outlined below. For the Caco-2 permeability assay, the cells were cultured (DMEM, 10% FBS, 1% L-Glutamax and 1% PenStrep) for 21 days. HBSS was used as the transport buffer and the TEER measurements were taken before the start of the assay. Compounds were added apical side to determine apical to basolateral transport (A-B) and basal side to determine basolateral to apical transport (B-A). Samples (10 μL) were collected at time 0 and 2 h and diluted (5×) with transport buffer. After the quenching reaction, the samples were further diluted in MilliQ water for bioanalysis. The TEER measurements were carried out at the end of the assay and wells with significant decrease in post-assay TEER values were not included in the data and repeated again. The analyte levels (peak area ratios) were measured on apical (A) and basolateral (B) sides at To and T2h-A-B and B-A fluxes were calculated averaging 3 individual measurements. Apparent permeability (Papp, cm/sec) was calculated as dQ (flux)/(dt*area*concentration). The efflux ratio was calculated by Papp(B-A)/[…]. For the microsomal metabolic stability assay, the microsomes were diluted in potassium phosphate buffer to maintain at a final concentration of 0.5 mg/ml in the assay procedure. The compounds were diluted 10-fold in acetonitrile and incubated with the microsomes at 37° C. with gentle shaking. Samples were collected at different timepoints and quenched. The samples were mixed by vortexing for 10 min and centrifuged at 3100 rpm for 10 min at 4° C. The supernatant was diluted in water and further analyzed in LC/MS autosampler. Half-life (T1/2) was calculated by the formula 0.692/slope where slope is ln(% remaining relative to Tzero vs time). Intrinsic clearance was calculated using the (CLn1)=T112*1/initial concentration*mg prep/g liver*g liver/kg body weight. For the cytochrome P450 inhibition assay, the cofactors and substrate were mixed in Potassium phosphate buffer. A stock concentration of 10 mM compounds (in DMSO) were diluted 5-fold in acetonitrile and mixed with cofactor/substrate mixture (2×). Human liver microsomes were diluted in Potassium phosphate buffer for a final concentration (2×) of 0.2 mg/ml and the reaction was initiated by mixing the microsomes with the compound/cofactor/substrate mixture at 37° C. with gentle shaking. Samples were collected at To and T30 min timepoints and quenched. The samples were then centrifuged at 3100 rpm for 5 min at 5-10° C. and the supernatant was diluted in water and further analyzed in LC/MS autosampler. % inhibition was calculated (using peak area ratios) relative to zero inhibition (full activity) and no activity (full inhibition).

[3] = Caco-2 permeability assay; format: in vitro ADME; conditions: human, Caco-2; for Papp at 2 h: apparent permeability, read-out: Caco-2 10^−6 cm/s
Experimental: as §1

SMILES | bioavailability [1] [%] | AUCinf ([1]; Intraperitoneal) [ng·h/mL] | Cmax ([1]; Intraperitoneal) [ng/mL] | T-half ([1]; Intraperitoneal) [h] | AUCinf ([1]; Intravenous) [ng·h/mL] | Cmax ([1]; Intravenous) [ng/mL] | T-half ([1]; Intravenous) [h] | AUCinf ([1]; Oral) [ng·h/mL] | Cmax ([1]; Oral) [ng/mL] | T-half ([1]; Oral) [h] | IC50 (CYP 3A4) [µM] | IC50 (CYP 2C9) [µM] | Caco-2 permeability ranking (Caco-2 cell monolayer) | Papp at 2 h [3] [×10⁻⁶ cm/s] | other results
CCCCC1(C2CCCC2)Cc2cc(OCCCC(=O)O)c(Cl)c(Cl)c2C1=O (stereo not drawn) [SN-401, 4-((2-butyl-6,7-dichloro-2-cyclopentyl-1-oxo-2,3-dihydro-1H-inden-5-yl)oxy)butanoic acid] | 79 | 23030 | 4367 | 2.056 | 5958 | 5443 | 1.428 | 4682 | 781 | 2.585 | > 10 | < 10 | Higher | 8.24 | Concentration required for inhibiting activated SWELL1-LRRC8 ([2]; upon hypotonic stimulation): ~10 µM; Caco-2 efflux ranking (Caco-2 cell monolayer; Caco-2): Not; Caco-2 cell monolayer permeability (Caco-2 cell monolayer; in words): good
CCCCC1(C2CCCC2)Cc2cc(OCCCCCC(=O)O)c(Cl)c(Cl)c2C1=O (stereo not drawn) [SN-406, 6-((2-butyl-6,7-dichloro-2-cyclopentyl-1-oxo-2,3-dihydro-1H-inden-5-yl)oxy)hexanoic acid] | 48 | 18180 | 4300 | 1.809 | 6532 | 15130 | 0.7689 | 3131 | 660.7 | 2.058 | > 10 | > 10 | Higher | 1.93 | Plasma concentrations relative to ICl,SWELL inhibitory concentrations ([1]; 5 mg/kg i.p. dosing): transiently approach; Plasma concentrations relative to ICl,SWELL inhibitory concentrations ([1]; 5 mg/kg p.o. dosing): remain well below; On-target inhibition of ICl,SWELL ([2]; HEK-293 cells, hypotonic (210 mOsm), 10 and 7 μM, relative to SN-401): maintained or enhanced; also recorded: increase; Caco-2 efflux ranking (Caco-2 cell monolayer): Not; efflux ratio at 2 h ([3]; read-out: Caco-2 efflux ratio B-A/A-B): 1.58
